Target: ROCK1;ROCK2 (human) (UniProt O75116)
Assay: Inhibition of ROCK1/ROCK2 Kinase Activity

Chain of ROCK1;ROCK2 (human) (O75116 whole entry, looked up): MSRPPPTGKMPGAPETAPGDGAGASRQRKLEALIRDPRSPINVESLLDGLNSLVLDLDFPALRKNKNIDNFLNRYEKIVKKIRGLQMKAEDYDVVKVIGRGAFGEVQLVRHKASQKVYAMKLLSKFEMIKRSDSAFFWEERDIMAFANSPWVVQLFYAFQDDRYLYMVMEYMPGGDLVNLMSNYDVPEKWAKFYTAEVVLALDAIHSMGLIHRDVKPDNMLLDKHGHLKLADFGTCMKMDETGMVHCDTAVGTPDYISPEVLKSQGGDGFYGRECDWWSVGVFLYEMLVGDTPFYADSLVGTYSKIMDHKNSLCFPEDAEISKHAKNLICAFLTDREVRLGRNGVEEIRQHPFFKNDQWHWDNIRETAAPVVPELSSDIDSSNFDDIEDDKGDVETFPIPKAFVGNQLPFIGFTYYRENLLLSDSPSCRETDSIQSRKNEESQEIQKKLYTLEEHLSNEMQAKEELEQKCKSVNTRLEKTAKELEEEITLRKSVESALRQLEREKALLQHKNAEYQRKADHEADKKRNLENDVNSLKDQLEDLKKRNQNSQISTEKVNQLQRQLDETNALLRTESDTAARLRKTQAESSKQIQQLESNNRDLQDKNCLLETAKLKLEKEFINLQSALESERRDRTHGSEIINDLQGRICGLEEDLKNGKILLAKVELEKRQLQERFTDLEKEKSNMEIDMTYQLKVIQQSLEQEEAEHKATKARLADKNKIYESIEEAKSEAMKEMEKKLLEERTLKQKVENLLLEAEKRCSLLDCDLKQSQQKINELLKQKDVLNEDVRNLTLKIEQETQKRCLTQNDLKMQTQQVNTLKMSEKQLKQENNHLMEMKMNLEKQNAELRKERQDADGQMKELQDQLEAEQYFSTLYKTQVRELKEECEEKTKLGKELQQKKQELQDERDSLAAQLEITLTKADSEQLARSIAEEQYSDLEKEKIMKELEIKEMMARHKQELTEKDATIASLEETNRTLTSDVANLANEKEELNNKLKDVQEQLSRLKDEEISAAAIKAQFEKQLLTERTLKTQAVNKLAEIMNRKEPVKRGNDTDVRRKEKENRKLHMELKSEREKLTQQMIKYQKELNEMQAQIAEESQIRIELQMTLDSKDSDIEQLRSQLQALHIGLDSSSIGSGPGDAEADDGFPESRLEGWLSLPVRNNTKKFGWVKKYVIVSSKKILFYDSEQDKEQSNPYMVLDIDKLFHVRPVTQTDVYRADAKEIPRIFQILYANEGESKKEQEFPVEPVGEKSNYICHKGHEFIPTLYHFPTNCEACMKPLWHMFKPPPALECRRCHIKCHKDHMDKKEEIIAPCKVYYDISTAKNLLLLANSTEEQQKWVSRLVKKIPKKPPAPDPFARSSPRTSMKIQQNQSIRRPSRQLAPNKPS

Compound | IC50
COc1ccc(C(=O)Nc2cc(C(=O)Nc3ccncc3)ccc2C(C)N)cc1 (stereo unspecified) | < 50 nM
CC(N)c1ccc(C(=O)Nc2ccncc2)cc1-c1ccc2ccccc2c1 (stereo unspecified) | < 50 nM
CC(N)c1ccc(C(=O)Nc2ccncc2)cc1NC(=O)c1ccc(Cl)cc1 (stereo unspecified) | 50 to 500 nM
C[C@@H](N)c1ccc(C(=O)Nc2ccncc2)cc1-c1cccs1 | < 50 nM
COc1cccc(C(=O)Nc2cc(C(=O)Nc3ccncc3)ccc2C(C)N)c1 (stereo unspecified) | < 50 nM
CC(N)c1ccc(C(=O)Nc2ccncc2)cc1OCc1ccccc1 (stereo unspecified) | 50 to 500 nM
CC(N)c1ccc(C(=O)Nc2ccncc2)cc1-c1cccs1 (stereo unspecified) | < 50 nM
COc1ccc(-c2cc(C(=O)Nc3ccncc3)ccc2C(C)N)cc1 (stereo unspecified) | 50 to 500 nM
CC(N)c1ccc(C(=O)Nc2ccncc2)cc1OCCN (stereo unspecified) | 500 to 5000 nM
CC(N)c1ccc(C(=O)Nc2ccncc2)cc1[N+](=O)[O-] (stereo unspecified) | 50 to 500 nM
CC(N)c1ccc(C(=O)Nc2ccncc2)cc1N (stereo unspecified) | 500 to 5000 nM
CC(N)c1ccc(C(=O)Nc2ccncc2)cc1NC(=S)Nc1ccccc1 (stereo unspecified) | 50 to 500 nM
CC(N)c1ccc(C(=O)Nc2ccncc2)cc1NC(=O)c1ccco1 (stereo unspecified) | 50 to 500 nM
CC(N)c1ccc(C(=O)Nc2ccncc2)cc1OCCCO (stereo unspecified) | 500 to 5000 nM
CC(N)c1ccc(C(=O)Nc2ccncc2)cc1-c1ccc(F)cc1 (stereo unspecified) | < 50 nM
C[C@H](N)c1ccc(C(=O)Nc2ccncc2)cc1-c1cccs1 | 50 to 500 nM

Next, values leading:

IC50 | Compound
< 50 nM | CC(N)c1ccc(C(=O)Nc2ccncc2)cc1-c1ccc(Cl)cc1 (stereo unspecified)
500 to 5000 nM | CC(N)c1ccc(C(=O)Nc2ccncc2)cc1OCCCN (stereo unspecified)
50 to 500 nM | CC(N)c1ccc(C(=O)Nc2ccncc2)cc1NCc1ccco1 (stereo unspecified)
50 to 500 nM | CC(N)c1ccc(C(=O)Nc2ccncc2)cc1NC(=O)c1ccccc1 (stereo unspecified)
< 50 nM | CC(N)c1ccc(C(=O)Nc2ccncc2)cc1-c1cccc(Cl)c1 (stereo unspecified)
50 to 500 nM | CC(N)c1ccc(C(=O)Nc2ccncc2)cc1NC(=O)c1cccc(Cl)c1 (stereo unspecified)
50 to 500 nM | CC(N)c1ccc(C(=O)Nc2ccncc2)cc1NC(=O)Nc1ccccc1 (stereo unspecified)
500 to 5000 nM | CC(N)c1ccc(C(=O)Nc2ccncc2)cc1OCCO (stereo unspecified)
500 to 5000 nM | CC(N)c1ccc(C(=O)Nc2ccncc2)cc1O (stereo unspecified)
50 to 500 nM | CC(N)c1ccc(C(=O)Nc2ccncc2)cc1-c1ccoc1 (stereo unspecified)
